Experimental data taken from patent US20230085307A1, “PYRIDAZINONE COMPOUND AND HERBICIDE” (NISSAN CHEMICAL CORPORATION, priority 2019, published 2023).

Assays:
southern crabgrass [1] = assay: Test Example 5: herbicidal effect by foliage application, plastic box (Table 20, symbol F); format: in vivo, southern crabgrass (Digitaria ciliaris); details: evaluated three weeks after application
Outline: (§1)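 Post-emergence foliar test in sterilized diluvial soil. Compound applied as water-diluted emulsion at a predetermined rate to 14-day-old plants; evaluation at three weeks.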

Italian ryegrass [2] = assay: Test Example 4: herbicidal effect by soil treatment (Table 19, symbol K); format: in vivo, Italian ryegrass (Lolium multiflorum); details: amount of applied herbicide 320 g/ha
Outline: (§2)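 Scoring uses the grading scale of an earlier test, three weeks post-application. Treatment consists of spraying a diluted emulsion formulation across the surface of sterilized diluvial soil in which seeds are buried near 1.5 cm deep; boxes are kept in a greenhouse between 25° C. and 30° C.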

lambsquarters [3] = assay: Test Example 5: herbicidal effect by foliage application, plastic box (Table 20, symbol O); format: in vivo, lambsquarters (Chenopodium album); details: evaluated three weeks after application
Outline: as §1

blackgrass [4] = assay: Test Example 5: herbicidal effect by foliage application, plastic box (Table 20, symbol J); format: in vivo, blackgrass (Alopecurus myosuroides); details: evaluated three weeks after application
Outline: as §1

persian speedwell [5] = assay: Test Example 4: herbicidal effect by soil treatment (Table 19, symbol R); format: in vivo, Persian speedwell (Veronica persica); details: amount of applied herbicide 320 g/ha
Outline: as §2

barnyard grass [6] = assay: Test Example 5: herbicidal effect by foliage application, plastic box (Table 20, symbol H); format: in vivo, barnyard grass (Echinochloa crus-galli); details: evaluated three weeks after application
Outline: as §1

lambsquarters [7] = assay: Test Example 4: herbicidal effect by soil treatment (Table 19, symbol O); format: in vivo, lambsquarters (Chenopodium album); details: amount of applied herbicide 320 g/ha
Outline: as §2

rice flat sedge = assay: Test Example 3: herbicidal effect by foliage application, Wagner pot (Table 18, symbol E); format: in vivo, rice flat sedge (Cyperus iria)
Outline: (§3)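 Plants were sown in alluvial soil held under 0.1–0.5 cm standing water and grown 14 days in a greenhouse at 25–30 °C. An emulsifiable formulation, water-diluted to the set dose, was then sprayed onto the foliage, and effects were scored three weeks later using previously defined criteria.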

Italian ryegrass [8] = assay: Test Example 5: herbicidal effect by foliage application, plastic box (Table 20, symbol K); format: in vivo, Italian ryegrass (Lolium multiflorum); details: evaluated three weeks after application
Outline: as §1

redroot pigweed [9] = assay: Test Example 4: herbicidal effect by soil treatment (Table 19, symbol N); format: in vivo, redroot pigweed (Amaranthus retroflexus); details: amount of applied herbicide 320 g/ha
Outline: as §2

green foxtail [10] = assay: Test Example 5: herbicidal effect by foliage application, plastic box (Table 20, symbol G); format: in vivo, green foxtail (Setaria viridis); details: evaluated three weeks after application
Outline: as §1

southern crabgrass [11] = assay: Test Example 4: herbicidal effect by soil treatment (Table 19, symbol F); format: in vivo, southern crabgrass (Digitaria ciliaris); details: amount of applied herbicide 320 g/ha
Outline: as §2

velvetleaf [12] = assay: Test Example 4: herbicidal effect by soil treatment (Table 19, symbol M); format: in vivo, velvetleaf (Abutilon theophrasti); details: amount of applied herbicide 320 g/ha
Outline: as §2

wild oat [13] = assay: Test Example 5: herbicidal effect by foliage application, plastic box (Table 20, symbol I); format: in vivo, wild oat (Avena fatua); details: evaluated three weeks after application
Outline: as §1

blackgrass [14] = assay: Test Example 4: herbicidal effect by soil treatment (Table 19, symbol J); format: in vivo, blackgrass (Alopecurus myosuroides); details: amount of applied herbicide 320 g/ha
Outline: as §2

chickweed [15] = assay: Test Example 5: herbicidal effect by foliage application, plastic box (Table 20, symbol P); format: in vivo, common chickweed (Stellaria media); details: evaluated three weeks after application
Outline: as §1

Chinese sprangletop = assay: Test Example 3: herbicidal effect by foliage application, Wagner pot (Table 18, symbol D); format: in vivo, chinese sprangletop (Leptochloa chinensis)
Outline: as §3

barnyard grass [16] = assay: Test Example 4: herbicidal effect by soil treatment (Table 19, symbol H); format: in vivo, barnyard grass (Echinochloa crus-galli); details: amount of applied herbicide 320 g/ha
Outline: as §2

wild oat [17] = assay: Test Example 4: herbicidal effect by soil treatment (Table 19, symbol I); format: in vivo, wild oat (Avena fatua); details: amount of applied herbicide 320 g/ha
Outline: as §2

barnyard grass [18] = assay: Test Example 3: herbicidal effect by foliage application, Wagner pot (Table 18, symbol H); format: in vivo, barnyard grass (Echinochloa crus-galli)
Outline: as §3

windgrass [19] = assay: Test Example 5: herbicidal effect by foliage application, plastic box (Table 20, symbol L); format: in vivo, windgrass (Apera spica-venti); details: evaluated three weeks after application
Outline: as §1

green foxtail [20] = assay: Test Example 4: herbicidal effect by soil treatment (Table 19, symbol G); format: in vivo, green foxtail (Setaria viridis); details: amount of applied herbicide 320 g/ha
Outline: as §2

velvetleaf [21] = assay: Test Example 5: herbicidal effect by foliage application, plastic box (Table 20, symbol M); format: in vivo, velvetleaf (Abutilon theophrasti); details: evaluated three weeks after application
Outline: as §1

windgrass [22] = assay: Test Example 4: herbicidal effect by soil treatment (Table 19, symbol L); format: in vivo, windgrass (Apera spica-venti); details: amount of applied herbicide 320 g/ha
Outline: as §2

chickweed [23] = assay: Test Example 4: herbicidal effect by soil treatment (Table 19, symbol P); format: in vivo, common chickweed (Stellaria media); details: amount of applied herbicide 320 g/ha
Outline: as §2

persian speedwell [24] = assay: Test Example 5: herbicidal effect by foliage application, plastic box (Table 20, symbol R); format: in vivo, Persian speedwell (Veronica persica); details: evaluated three weeks after application
Outline: as §1

redroot pigweed [25] = assay: Test Example 5: herbicidal effect by foliage application, plastic box (Table 20, symbol N); format: in vivo, redroot pigweed (Amaranthus retroflexus); details: evaluated three weeks after application
Outline: as §1

[26] = amount of applied herbicide 320 g/ha, foliage application after 14-day growth
[27] = amount of applied herbicide 320 g/ha

Cc1nn(C)c(=O)c(-c2c(-c3ccc(C#N)cc3)sc3cc(F)c(F)cc23)c1O [5-025]
Herbicidal effect by foliage application, F: southern crabgrass (southern crabgrass [1]; [26]): 3 (Herbicidal rate of 40% or more and less than 70%)
K: Italian ryegrass, herbicidal effect grade (Italian ryegrass [2]): 1 (Herbicidal rate of 5% or more and less than 20%)
Herbicidal effect by foliage application, O: lambsquarters (lambsquarters [3]; [26]): 5 (Herbicidal rate of 90% or more (almost completely withered))
Herbicidal effect by foliage application, J: blackgrass (blackgrass [4]; [26]): 1 (Herbicidal rate of 5% or more and less than 20%)
R: persian speedwell, herbicidal effect grade (persian speedwell [5]): 4 (Herbicidal rate of 70% or more and less than 90%)
Herbicidal effect by foliage application, H: barnyard grass (barnyard grass [6]; [26]): 1 (Herbicidal rate of 5% or more and less than 20%)
O: lambsquarters, herbicidal effect grade (lambsquarters [7]): 5 (Herbicidal rate of 90% or more (almost completely withered))
herbicidal effect on rice flat sedge (E) (rice flat sedge; 320 g/ha): 4 (Herbicidal rate of 70% or more and less than 90%)
Herbicidal effect by foliage application, K: Italian ryegrass (Italian ryegrass [8]; [26]): 1 (Herbicidal rate of 5% or more and less than 20%)
N: redroot pigweed, herbicidal effect grade (redroot pigweed [9]): 5 (Herbicidal rate of 90% or more (almost completely withered))
Herbicidal effect by foliage application, G: green foxtail (green foxtail [10]; [26]): 4 (Herbicidal rate of 70% or more and less than 90%)
F: southern crabgrass, herbicidal effect grade (southern crabgrass [11]): 1 (Herbicidal rate of 5% or more and less than 20%)
M: velvetleaf, herbicidal effect grade (velvetleaf [12]): 3 (Herbicidal rate of 40% or more and less than 70%)
Herbicidal effect by foliage application, I: wild oat (wild oat [13]; [26]): 3 (Herbicidal rate of 40% or more and less than 70%)
J: blackgrass, herbicidal effect grade (blackgrass [14]): 0 (Herbicidal rate of 5% or less (almost no effect))
Herbicidal effect by foliage application, P: chickweed (chickweed [15]; [26]): 5 (Herbicidal rate of 90% or more (almost completely withered))
herbicidal effect on Chinese sprangletop (D) (Chinese sprangletop; 320 g/ha): 4 (Herbicidal rate of 70% or more and less than 90%)
H: barnyard grass, herbicidal effect grade (barnyard grass [16]): 3 (Herbicidal rate of 40% or more and less than 70%)
I: wild oat, herbicidal effect grade (wild oat [17]): 1 (Herbicidal rate of 5% or more and less than 20%)
herbicidal effect on barnyard grass (H) (barnyard grass [18]; 320 g/ha): 3 (Herbicidal rate of 40% or more and less than 70%)
Herbicidal effect by foliage application, L: windgrass (windgrass [19]; [26]): 5 (Herbicidal rate of 90% or more (almost completely withered))
G: green foxtail, herbicidal effect grade (green foxtail [20]): 4 (Herbicidal rate of 70% or more and less than 90%)
Herbicidal effect by foliage application, M: velvetleaf (velvetleaf [21]; [26]): 5 (Herbicidal rate of 90% or more (almost completely withered))
L: windgrass, herbicidal effect grade (windgrass [22]): 0 (Herbicidal rate of 5% or less (almost no effect))
P: chickweed, herbicidal effect grade (chickweed [23]): 3 (Herbicidal rate of 40% or more and less than 70%)
Herbicidal effect by foliage application, R: persian speedwell (persian speedwell [24]; [26]): 5 (Herbicidal rate of 90% or more (almost completely withered))
Herbicidal effect by foliage application, N: redroot pigweed (redroot pigweed [25]; [26]): 5 (Herbicidal rate of 90% or more (almost completely withered))

CCCC(=O)Oc1c(C)nn(C)c(=O)c1-c1c(-c2ccc(F)cc2)sc2ccc(C)cc12 [2-135]
herbicidal effect on F: southern crabgrass (southern crabgrass [1]; foliage application, 320 g/ha): 0 (Herbicidal rate of 5% or less (almost no effect))
K: Italian ryegrass, herbicidal effect rating (Italian ryegrass [2]): 1 (Herbicidal rate of 5% or more and less than 20%)
herbicidal effect on O: lambsquarters (lambsquarters [3]; foliage application, 320 g/ha): 3 (Herbicidal rate of 40% or more and less than 70%)
herbicidal effect on J: blackgrass (blackgrass [4]; foliage application, 320 g/ha): 0 (Herbicidal rate of 5% or less (almost no effect))
R: persian speedwell, herbicidal effect rating (persian speedwell [5]): 0 (Herbicidal rate of 5% or less (almost no effect))
herbicidal effect on H: barnyard grass (barnyard grass [6]; foliage application, 320 g/ha): 0 (Herbicidal rate of 5% or less (almost no effect))
O: lambsquarters, herbicidal effect rating (lambsquarters [7]): 0 (Herbicidal rate of 5% or less (almost no effect))
herbicidal effect on E: rice flat sedge (rice flat sedge; [27]): 3 (Herbicidal rate of 40% or more and less than 70%)
herbicidal effect on K: Italian ryegrass (Italian ryegrass [8]; foliage application, 320 g/ha): 3 (Herbicidal rate of 40% or more and less than 70%)
N: redroot pigweed, herbicidal effect rating (redroot pigweed [9]): 0 (Herbicidal rate of 5% or less (almost no effect))
herbicidal effect on G: green foxtail (green foxtail [10]; foliage application, 320 g/ha): 0 (Herbicidal rate of 5% or less (almost no effect))
F: southern crabgrass, herbicidal effect rating (southern crabgrass [11]): 0 (Herbicidal rate of 5% or less (almost no effect))
M: velvetleaf, herbicidal effect rating (velvetleaf [12]): 0 (Herbicidal rate of 5% or less (almost no effect))
herbicidal effect on I: wild oat (wild oat [13]; foliage application, 320 g/ha): 0 (Herbicidal rate of 5% or less (almost no effect))
J: blackgrass, herbicidal effect rating (blackgrass [14]): 0 (Herbicidal rate of 5% or less (almost no effect))
herbicidal effect on P: chickweed (chickweed [15]; foliage application, 320 g/ha): 5 (Herbicidal rate of 90% or more (almost completely withered))
herbicidal effect on D: Chinese sprangletop (Chinese sprangletop; [27]): 0 (Herbicidal rate of 5% or less (almost no effect))
H: barnyard grass, herbicidal effect rating (barnyard grass [16]): 0 (Herbicidal rate of 5% or less (almost no effect))
I: wild oat, herbicidal effect rating (wild oat [17]): 0 (Herbicidal rate of 5% or less (almost no effect))
herbicidal effect on H: barnyard grass (barnyard grass [18]; [27]): 1 (Herbicidal rate of 5% or more and less than 20%)
herbicidal effect on L: windgrass (windgrass [19]; foliage application, 320 g/ha): 0 (Herbicidal rate of 5% or less (almost no effect))
G: green foxtail, herbicidal effect rating (green foxtail [20]): 0 (Herbicidal rate of 5% or less (almost no effect))
herbicidal effect on M: velvetleaf (velvetleaf [21]; foliage application, 320 g/ha): 4 (Herbicidal rate of 70% or more and less than 90%)
L: windgrass, herbicidal effect rating (windgrass [22]): 0 (Herbicidal rate of 5% or less (almost no effect))
P: chickweed, herbicidal effect rating (chickweed [23]): 3 (Herbicidal rate of 40% or more and less than 70%)
herbicidal effect on R: persian speedwell (persian speedwell [24]; foliage application, 320 g/ha): 1 (Herbicidal rate of 5% or more and less than 20%)
herbicidal effect on N: redroot pigweed (redroot pigweed [25]; foliage application, 320 g/ha): 5 (Herbicidal rate of 90% or more (almost completely withered))
